Results: PMC11726654, “Discovery of MDI-114215: A Potent and Selective LIMK Inhibitor To Treat Fragile X Syndrome” (Journal of Medicinal Chemistry, 2024)

How the values were obtained:
Microsomal stability [1] = conditions: for microsomal CLint at 0.5 h, 2 µM / microsomal CLint at 2 μM: human, microsomes, pH 7.4
Microsomal stability [2] = conditions: for microsomal CLint at 0.5 h, 2 µM / microsomal CLint at 2 μM: rat, microsomes, pH 7.4; for Microsomal CLint Rat: rat microsomes, 2 μM compound
[3] = Caco-2 permeability and efflux; conditions: human, Caco-2
[4] = test system: p-cofilin Ser3 levels in SH-SY5Y cells; experiment: AlphaLISA SureFire p-cofilin assay; type: cell-based; conditions: Homo sapiens, 2 h, read-out: alphaLISA pIC50 p-cofilin (converted)
Description: The AlphaLISA assay for detection of p-cofilin Ser3 levels was followed as previously described.[14] […] Cells were placed in the incubator for 2 h, after which the media was removed and the cells were lysed using 50 μL AlphaLISA 1× lysis buffer (PerkinElmer, USA) containing protease inhibitor cocktail (Sigma/Merck, Dorset, UK) and Pierce phosphatase inhibitor cocktail (Thermo Fisher Scientific, UK). The cell lysate was then transferred to a clean, flat-bottom, white 384-well plate, to which 5 μL/well of acceptor bead solution consisting of Reaction buffer 1, Reaction buffer 2, Activation Buffer and Acceptor Beads from pCofilin SureFire Ultra assay kit (PerkinElmer, USA, cat# ALSU-PCOF-A500) was added under dim light. After incubation at RT for 1 h, 5 μL/well of donor solution consisting of Dilution Buffer and Donor beads was added. The plate was read on a Pherastar reader (BMD Labtech Ltd., Aylesbury, UK) using an AlphaLISA cartridge and AlphaLISA plate settings.

[5] = Unbound fraction in brain and plasma; type: in vitro ADME
In vivo PK, i.v. dosing = conditions: male, Sprague-Dawley, rat, plasma; for CLint scaled: intravenous; for AUC(0-inf) at 1 h / Vd at 1 h / half-life at 1 h: iv
Description: A satellite group of three animals were also administered i.v. test compound (dosed at 1 mg/kg in 10% DMSO/20% Cremophor/70% saline) and after 1 h, the animals culled and brain samples immediately prepared by homogenization in H2O and protein precipitation in MeCN. Bioanalysis on plasma and brain samples were performed using a UHPLC-tandem mass spectrometry using electrospray ionization.

[6] = In vivo PK, p.o./i.p. dosing; conditions: male, Sprague-Dawley, rat, plasma, po, 3 mg/kg
LIMK1 = LIMK1 (Homo sapiens, UniProt P53667); experiment: RapidFire mass spectrometry kinase assay (cofilin phosphorylation); type: biochemical; conditions: non-phosphorylated LIMK1; mean ± SEM; read-out: Enzymatic (RapidFire) pIC50 LIMK1 (converted)
LIMK2 = LIMK2 (Homo sapiens, UniProt P53671); experiment: as above; type: biochemical; conditions: non-phosphorylated LIMK2; mean ± SEM; read-out: Enzymatic (RapidFire) pIC50 LIMK2 (converted)
Caco-2 = Caco-2 permeability and efflux; conditions: efflux ratio

Sequence of LIMK2 (P53671 whole entry): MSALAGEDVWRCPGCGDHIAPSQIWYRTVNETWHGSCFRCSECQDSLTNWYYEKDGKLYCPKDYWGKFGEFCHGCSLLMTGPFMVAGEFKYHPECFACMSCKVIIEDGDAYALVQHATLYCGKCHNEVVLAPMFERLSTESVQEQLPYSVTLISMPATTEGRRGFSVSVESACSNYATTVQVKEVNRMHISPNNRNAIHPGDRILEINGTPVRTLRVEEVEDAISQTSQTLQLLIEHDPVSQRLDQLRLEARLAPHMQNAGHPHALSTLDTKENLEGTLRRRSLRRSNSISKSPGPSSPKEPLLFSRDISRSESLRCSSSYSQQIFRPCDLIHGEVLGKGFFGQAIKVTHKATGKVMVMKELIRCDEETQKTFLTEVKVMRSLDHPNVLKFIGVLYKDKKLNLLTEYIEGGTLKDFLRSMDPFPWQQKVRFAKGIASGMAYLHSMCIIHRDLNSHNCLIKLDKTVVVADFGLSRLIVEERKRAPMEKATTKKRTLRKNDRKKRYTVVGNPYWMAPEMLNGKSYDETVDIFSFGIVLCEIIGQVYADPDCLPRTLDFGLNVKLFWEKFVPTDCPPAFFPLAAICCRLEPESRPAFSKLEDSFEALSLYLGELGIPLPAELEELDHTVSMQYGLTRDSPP
Sequence of LIMK1 (P53667 whole entry): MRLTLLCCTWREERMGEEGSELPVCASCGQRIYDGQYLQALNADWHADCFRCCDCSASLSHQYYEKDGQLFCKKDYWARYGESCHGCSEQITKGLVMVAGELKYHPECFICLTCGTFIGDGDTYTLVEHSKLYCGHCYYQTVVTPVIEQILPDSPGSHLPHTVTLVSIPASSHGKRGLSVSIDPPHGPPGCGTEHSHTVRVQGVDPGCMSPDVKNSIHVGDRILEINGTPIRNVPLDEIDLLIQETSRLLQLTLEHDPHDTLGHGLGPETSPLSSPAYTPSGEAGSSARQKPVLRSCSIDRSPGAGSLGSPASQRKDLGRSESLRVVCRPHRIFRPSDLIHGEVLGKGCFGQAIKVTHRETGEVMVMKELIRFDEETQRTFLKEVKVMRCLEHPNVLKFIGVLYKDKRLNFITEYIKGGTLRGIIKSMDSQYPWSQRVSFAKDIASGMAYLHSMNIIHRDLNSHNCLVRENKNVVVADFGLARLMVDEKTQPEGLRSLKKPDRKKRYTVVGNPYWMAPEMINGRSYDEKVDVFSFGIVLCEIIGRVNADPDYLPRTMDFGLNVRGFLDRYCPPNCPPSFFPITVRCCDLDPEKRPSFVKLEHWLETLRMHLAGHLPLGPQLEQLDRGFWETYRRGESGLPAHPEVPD

| SMILES | Papp [3] [×10⁻⁶ cm/s] | IC50 (LIMK1) [nM] | IC50 (LIMK2) [nM] | microsomal CLint at 2 μM (Microsomal stability [1]) [µL/min/mg] | Microsomal CLint Rat (Microsomal stability [2]) | microsomal CLint at 2 μM (Microsomal stability [2]) [µL/min/mg] | other results |
| --- | --- | --- | --- | --- | --- | --- | --- |
| Cc1cc(CN(CC2CC2)C(=O)c2ccc(S(=O)(=O)Nc3ccccc3)cc2)ncc1NCCO [Compound 83, N-(Cyclopropylmethyl)-N-[[5-(2-hydroxyethylamino)-4-methyl-2-pyridyl]methyl]-4-(phenylsulfamoyl)benzamide] | 0.5 | – | – | – | – | – | microsomal CLint at 0.5 h, 2 µM (Microsomal stability [1]): 130 µL/min/mg; microsomal CLint at 0.5 h, 2 µM (Microsomal stability [2]): 171 µL/min/mg |
| O=C(c1ccc(S(=O)(=O)Nc2ccccc2)cc1)N(Cc1ccc(NCCO)cn1)CC1CC1 [Compound 74, N-(Cyclopropylmethyl)-N-[[5-(2-hydroxyethylamino)-2-pyridyl]methyl]-4-(phenylsulfamoyl)benzamide] | – | – | – | – | – | – | IC50 [4]: 661 nM; fubrain ([5]; unbound fraction in brain): 2.8%; fuplasma ([5]; unbound fraction in plasma): 8.0%; microsomal CLint at 0.5 h, 2 µM (Microsomal stability [1]): 42 µL/min/mg; microsomal CLint at 0.5 h, 2 µM (Microsomal stability [2]): 114 µL/min/mg; CLint scaled (In vivo PK, i.v. dosing): 51.9 mL/min/kg; AUC(0-inf) at 1 h (In vivo PK, i.v. dosing; 1 mg/kg): 322 ng·h/mL; Vd at 1 h (In vivo PK, i.v. dosing; 1 mg/kg): 1.8 L/kg; half-life at 1 h (In vivo PK, i.v. dosing; 1 mg/kg): 42 min; Cmax at 1 h [6]: 50.8 ng/mL; Tmax at 1 h [6]: 24 min; bioavailability at 1 h [6]: 15% |
| O=C(c1ccc(S(=O)(=O)Nc2ccccc2)cc1)N(Cc1ccc2ncoc2c1)CC1CC1 [Compound 62, N-(1,3-Benzoxazol-6-ylmethyl)-N-(cyclopropylmethyl)-4-(phenylsulfamoyl)benzamide] | – | 95.5 | 6.46 | 263 | Rapid | – | – |
| CCCCN(CC1CCCO1)C(=O)c1ccc(S(=O)(=O)Nc2ccccc2)cc1 (stereo not shown) [Compound 47, N-Butyl-4-(N-phenylsulfamoyl)-N-((tetrahydrofuran-2-yl)methyl)benzamide] | – | > 10000 | > 10000 | 427 | Rapid | – | – |
| O=C(c1ccc(S(=O)(=O)Nc2ccccc2)cc1)N(Cc1ccccc1)C1CC1 [Compound 58, N-Benzyl-N-cyclopropyl-4-(phenylsulfamoyl)benzamide] | – | 1070 | 46.8 | 396 | Rapid | – | – |
| O=C(c1ccc(S(=O)(=O)Nc2ccccc2)cc1)N(Cc1ccc(NC2COC2)cn1)CC1CC1 [Compound 76, N-(Cyclopropylmethyl)-N-[[5-(oxetan-3-ylamino)-2-pyridyl]methyl]-4-(phenylsulfamoyl)benzamide] | 1.7 | – | – | – | – | – | microsomal CLint at 0.5 h, 2 µM (Microsomal stability [1]): 71 µL/min/mg; microsomal CLint at 0.5 h, 2 µM (Microsomal stability [2]): 22 µL/min/mg |
| O=C(c1ccc(S(=O)(=O)Nc2ccccc2)cc1)N(Cc1ccc2[nH]ccc2c1)CC1CC1 [Compound 61, N-(Cyclopropylmethyl)-N-(1H-indol-5-ylmethyl)-4-(phenylsulfamoyl)benzamide] | – | 11 | 11 | 288 | – | 802 | – |
| CCCCN(Cc1ccccn1)C(=O)c1ccc(S(=O)(=O)Nc2ccccc2)cc1 [Compound 45, N-Butyl-4-(N-phenylsulfamoyl)-N-(pyridin-2-ylmethyl)benzamide] | – | 1290 | 51.3 | 256 | Rapid | – | – |
| Cc1nc(CN(CC2CC2)C(=O)c2ccc(S(=O)(=O)Nc3ccccc3)cc2)ccc1NCCO [Compound 82, N-(Cyclopropylmethyl)-N-[[5-(2-hydroxyethylamino)-6-methyl-2-pyridyl]methyl]-4-(phenylsulfamoyl)benzamide] | 0.6 | – | – | 97 | – | 221 | Caco-2 ER (Caco-2): 81 |
| N#CCCN(Cc1ccncc1)C(=O)c1ccc(S(=O)(=O)Nc2ccccc2)cc1 [Compound 55, N-(2-Cyanoethyl)-4-(phenylsulfamoyl)-N-(4-pyridylmethyl)benzamide] | – | – | – | 32 | – | 81 | CLint scaled (In vivo PK, i.v. dosing): 16.5 mL/min/kg; AUC(0-inf) at 1 h (In vivo PK, i.v. dosing; 0.2 mg/kg): 217 ng·h/mL; Vd at 1 h (In vivo PK, i.v. dosing; 0.2 mg/kg): 0.4 L/kg; half-life at 1 h (In vivo PK, i.v. dosing; 0.2 mg/kg): 18 min |
| CCCCN(Cc1cccc(OC)c1)C(=O)c1ccc(S(=O)(=O)Nc2ccccc2)cc1 [Compound 41, N-Butyl-N-(3-methoxybenzyl)-4-(N-phenylsulfamoyl)benzamide] | – | 1620 | 224 | 556 | – | 783 | – |
| CN(CCO)c1ccc(CN(CC2CC2)C(=O)c2ccc(S(=O)(=O)Nc3ccccc3)cc2)nc1 [Compound 77, N-(Cyclopropylmethyl)-N-[[5-[2-hydroxyethyl(methyl)amino]-2-pyridyl]methyl]-4-(phenylsulfamoyl)benzamide] | 0.5 | – | – | 109 | Rapid | – | – |
| O=C(c1ccc(S(=O)(=O)Nc2ccccc2)cc1)N(Cc1ccc(Br)cn1)CC1CC1 [Compound 63, N-[(5-Bromo-2-pyridyl)methyl]-N-(cyclopropylmethyl)-4-(phenylsulfamoyl)benzamide] | – | 19.1 | 25.7 | 307 | Rapid | – | – |
| O=C(c1ccc(S(=O)(=O)Nc2ccccc2)cc1)N(Cc1ccc(F)cn1)CC1CC1 [Compound 71, N-(Cyclopropylmethyl)-N-((5-fluoropyridin-2-yl)methyl)-4-(N-phenylsulfamoyl)benzamide] | 21.1 | – | – | – | Rapid | – | microsomal CLint at 0.5 h, 2 µM (Microsomal stability [1]): 282 µL/min/mg |
| CCCCN(Cc1ccccc1OC)C(=O)c1ccc(S(=O)(=O)Nc2ccccc2)cc1 [Compound 42, N-Butyl-N-(2-methoxybenzyl)-4-(N-phenylsulfamoyl)benzamide] | – | 2570 | 1170 | 812 | – | 827 | – |
| CN(c1ccccc1)S(=O)(=O)c1ccc(C(=O)N(Cc2ccc(NCCO)cn2)CC2CC2)cc1 [Compound 84, N-(Cyclopropylmethyl)-N-[[5-(2-hydroxyethylamino)-2-pyridyl]methyl]-4-[methyl(phenyl)sulfamoyl]benzamide] | 5.7 | – | – | 344 | – | 409 | Caco-2 ER (Caco-2): 12 |
| CCCCN(Cc1ccc(N2CCNCC2)cc1)C(=O)c1ccc(S(=O)(=O)Nc2ccccc2)cc1 [Compound 49, N-Butyl-4-(N-phenylsulfamoyl)-N-(4-(piperazin-1-yl)benzyl)benzamide] | – | > 10000 | 2290 | 50 | – | 56 | – |
| CC(C)CN(Cc1ccccc1)C(=O)c1ccc(S(=O)(=O)Nc2ccccc2)cc1 [Compound 59, N-Benzyl-N-isobutyl-4-(phenylsulfamoyl)benzamide] | – | 1020 | 20.9 | – | Rapid | – | Microsomal CLint Human (Microsomal stability [1]; human microsomes, 2 μM compound): Rapid |
| CCCCN(Cc1ccc(OC)cc1)C(=O)c1ccc(S(=O)(=O)Nc2ccccc2)cc1 [Compound 40, N-Butyl-N-(4-methoxybenzyl)-4-(N-phenylsulfamoyl)benzamide] | – | 447 | 39.8 | 280 | – | 978 | – |
| O=C(c1ccc(S(=O)(=O)Nc2ccccc2)cc1)N(Cc1ccc(CCc2nnn[nH]2)cn1)CC1CC1 [Compound 79, N-(Cyclopropylmethyl)-4-(phenylsulfamoyl)-N-[[5-[2-(1H-tetrazol-5-yl)ethyl]-2-pyridyl]methyl]benzamide] | 0.1 | – | – | 22 | – | 12 | Caco-2 ER (Caco-2): 103 |
| C[C@@H](c1ccccc1)N(CC1CC1)C(=O)c1ccc(S(=O)(=O)Nc2ccccc2)cc1 [Compound 64, (S)-N-(Cyclopropylmethyl)-N-(1-phenylethyl)-4-(N-phenylsulfamoyl)benzamide] | – | 240 | 100 | 774 | Rapid | – | – |
| O=C(c1ccc(S(=O)(=O)Nc2ccccc2)cc1)N(Cc1ccccc1)CC1(Cn2ccnc2)CC1 [Compound 60, N-Benzyl-N-[[1-(imidazol-1-ylmethyl)cyclopropyl]methyl]-4-(phenylsulfamoyl)benzamide] | – | 407 | 19.1 | 109 | – | 395 | – |
